Measurements as given in patent US20210008118A1, “METHOD FOR ENHANCING MIGRATION OF STEM CELLS INTO CANCER CELLS” (GACHON UNIVERSITY OF INDUSTRY-ACADEMIC COOPERATION …, priority 2019, published 2021).

System: mesenchymal stem cells (BMMSCs, ADMSCs) migrating into cancer cells (A549, H1975, PANC-1, U87MG)
Test: Transwell migration of stem cells treated with ion channel inhibitor DIDS or ion channel antibodies
Type: cell-based
Details: 500 μM DIDS or ion channel antibodies; all cancer cells used (A549, H1975, PANC-1, U87MG)
Method: In vitro mobility measurement of stem cells according to an embodiment of the present invention was performed using a transwell membrane bilayer plate having a pore size of 8 μm. Cancer cells for stimulating the stem cells were cultured in the layer under the membrane, and the stem cells were cultured in the upper chamber to allow the cells to penetrate downward. At this time, the mobility was measured through the number of stem cells infiltrated the membrane.
In order to investigate the effect of ion channel activity on the ability of stem cells to migrate into cancer cells, the present inventors performed an analysis similar to Example 1-1 using DIDS (4,4′-Diisothiocyano-2,2′-stilbenedisulfonic acid) which is an ion channel inhibitor and antibodies specifically binding to ion channels (SLC4A4, SLC4A7). Particularly, in the case of lung cancer cells, 5×10^4 of bone marrow-derived mesenchymal stem cells (BMMSCs) as a control group and lung cancer cells (A549 and H1975) as an experimental group were dispensed onto the lower well, respectively, and cultured at 37° C. for 24 hours. […] Subsequently, stem cells migrated into the lower well through the transwell membrane were counted trough a confocal fluorescence microscope in order to measure their mobility (FIGS. 3A to 4D).

O=S(=O)(O)c1cc(N=C=S)ccc1C=Cc1ccc(N=C=S)cc1S(=O)(=O)O [DIDS, 4,4′-Diisothiocyano-2,2′-stilbenedisulfonic acid]
ability of the mesenchymal stem cells to migrate into cancer cells: decreased significantly
